The record followed here is patent publication US12629382B2, “Therapy” (Vestlandets Innovasjonsselskap AS, priority 2019, dated 2026).

Type in all cases: cell-based
For test [1], the system named is A172 glioma cells. Kind of test: Intracellular GSH, GSH-Glo assay, A172 cells. The conditions noted are these: Homo sapiens, 48 h, normalized to untreated control; for activity at 250 µM: A 172, 250 μM compound, read-out: Intracellular GSH level A172 250 μM; for activity at 500 µM: A 172, 500 μM compound, read-out: Intracellular GSH level A172 500 μM. The procedure:
(§1) The cancer cell lines A172, A375, U87 and MCF7 were purchased from American Type Culture Collection (ATCC; Manassas, Va., USA). Cells were cultured in Dulbecco's Modified Eagle's Medium (DMEM) supplemented with 10% fetal bovine serum, 2% v/v L-glutamine, 3.2% v/v non-essential amino acids, antibiotics 2% v/v (penicillin-streptomycin), and 0.02% v/v Plasmocin at 37° C. and 5% CO2.
(§2) xCT expression of cancer cell lines was evaluated by western blotting from protein samples of cell lysates as described in Sleire et al., Oncogene 34: 5951-5959, 2015. Protein concentrations were determined by BCA assay (Thermo Fisher Scientific, USA) followed by SDS PAGE and immunoblotting using rabbit anti-xCT (Thermo Fisher Scientific) and rabbit anti-GAPDH (Abcam, Cambridge, UK) as a loading control. The compounds were dissolved in dimethylsulfoxide (DMSO) (Sigma Aldrich, Germany) and stock concentrations of 100 mM were stored at −20° C. in aliquots. Final concentrations were made in growth medium before adding to the cell monolayers.
(§3) The compounds were evaluated based on the measurement of intracellular Glutathione (GSH) which was performed by the GSH-Glo assay (Promega, Madison, WI, USA, cat #V6912) according to the manufacturer's recommended procedures. 5000 cells per well were seeded in a flat bottomed 96-well plate. After attachment to the well surface, cells were exposed to 250 μM and 500 μM of each compound for 48 h. After that, GSH-Glo reagent was added followed by short incubation and addition of luciferin detection reagent. Bioluminescence was measured using a luminometer (Victor 3 1420 multi-label counter, Perkins Elmer, Waltham, MA, USA). IC50 doses for the compounds SAS, DC10 and DC14 were determined in A172 glioma cells, using the GraphPad Prism v6 software (GraphPad Software, Inc. CA, USA). All measurements were normalized to the untreated control and were performed three times.

The test system of test [2] is A375. In words: Intracellular GSH, GSH-Glo assay, A375 cells. Particulars: Homo sapiens, 48 h, normalized to untreated control; for activity at 250 µM: A-375, 250 μM compound, read-out: Intracellular GSH level A375 250 μM; for activity at 500 µM: A-375, 500 μM compound, read-out: Intracellular GSH level A375 500 μM. The procedure: as §1, §2, §3
The subject of test [3] is MCF7. Kind of test: Intracellular GSH, GSH-Glo assay, MCF7 cells. The conditions noted are these: Homo sapiens, 48 h, normalized to untreated control; for activity at 250 µM: 250 μM compound, read-out: Intracellular GSH level MCF7 250 μM; for activity at 500 µM: 500 μM compound, read-out: Intracellular GSH level MCF7 500 μM. Here is the method:
as §1, §2, §3

Test [4] relates to U87. Kind of test: Intracellular GSH, GSH-Glo assay, U87 cells. Particulars: Homo sapiens, U-87 MG, 48 h, normalized to untreated control; for activity at 250 µM: 250 μM compound, read-out: Intracellular GSH level U87 250 μM; for activity at 500 µM: 500 μM compound, read-out: Intracellular GSH level U87 500 μM. Here is the method:
as §1, §2, §3

`Oc1ccc(/C=C/c2ccccc2)cc1-c1nnn[nH]1` [DC15, (E)-4-styryl-2-(1H-tetrazol-5-yl)phenol]: the activity at 250 µM was found to be 55.1% in test [1], 53.3% in test [2], 75.8% in test [3] and 104% in test [4]. For the same molecule, the activity at 500 µM in test [1] stood at 9.7%; in test [2], 46.4%; in test [3], 32.6%; in test [4], 50.4%.

With `O=C(O)c1cc(-c2ccc3ccccc3c2)ccc1O` [DC11, 2-hydroxy-5-(naphthalen-2-yl)benzoic acid], the activity at 250 µM was determined as 28.4% in test [1], 36.1% in test [2], 23.7% in test [3] and 62.6% in test [4]. Moreover, the activity at 500 µM worked out at 10.2% in test [1], 11.8% in test [2], 8.8% in test [3] and 22.7% in test [4].

For `O=C(O)c1cc(/C=C/c2ccccc2)ccc1O` [DC02, (E)-2-hydroxy-5-styrylbenzoic acid], the activity at 250 µM in test [1] is 90.9%; in test [2], 50.4%; in test [3] it was 47.4%; in test [4] it was 82.2%. Further, the activity at 500 µM was 41% in test [1], 32% in test [2], 15.9% in test [3] and 66.9% in test [4].

As to `CS(=O)(=O)c1ccc(/C=C/c2ccc(O)c(C(=O)O)c2)cc1` [DC13, (E)-2-hydroxy-5-(4-(methylsulfonyl)styryl)benzoic acid], the activity at 250 µM in test [1] was determined as 94.1%; in test [2] it was 74.3%; in test [3] it was 88.3%; in test [4] it was 105%. Moreover, the activity at 500 µM in test [1] is 81.6%; in test [2], 59.7%; in test [3] it was 76.6%; in test [4], 103%.

Consider `COc1ccc(-c2ccc3ccccc3c2)cc1C(=O)O` [DC05, 2-methoxy-5-(naphthalen-2-yl)benzoic acid], for which the activity at 250 µM in test [1] stood at 75.6%; in test [2] it was 47.6%; in test [3], 82.4%; in test [4], 42.9%. The activity at 500 µM in test [1] stood at 57.7%; in test [2], 37.9%; in test [3], 39%; in test [4], 39.5%.

For `Cc1cc(O)c(C(=O)O)c(C)c1-c1ccc2ccccc2c1` [DC20, 6-hydroxy-2,4-dimethyl-3-(naphthalen-2-yl)benzoic acid], the activity at 250 µM came to 82.1% in test [1], 63.1% in test [2], 40.5% in test [3] and 61.1% in test [4]. Besides, the activity at 500 µM amounted to 11.9% in test [1], 4.6% in test [2], 9.7% in test [3] and 6.1% in test [4].

Consider `O=C(O)c1cc(/C=C/c2ccc(S(=O)(=O)Nc3ccccc3)cc2)ccc1O` [DC14, (E)-2-hydroxy-5-(4-(N-phenylsulfamoyl)styryl)benzoic acid], for which the activity at 250 µM was found to be 23.1% in test [1], 4.5% in test [2], 25.9% in test [3] and 18% in test [4]. The activity at 500 µM came out at 2.4% in test [1], 2% in test [2], 1.8% in test [3] and 1.9% in test [4].

Take `O=C(O)c1cc(/C=C/c2ccc(F)cc2)ccc1O` [DC07, (E)-5-(4-fluorostyryl)-2-hydroxybenzoic acid]: the activity at 250 µM was 81.6% in test [1], 23.8% in test [2], 22.1% in test [3] and 50.4% in test [4]. Also, the activity at 500 µM in test [1] was determined as 16.8%; in test [2], 7.8%; in test [3], 6.9%; in test [4], 11.7%.

With `O=C(O)c1cc(-c2ccc(-c3ccccc3)cc2)ccc1O` [DC17, 4-hydroxy-[1,1′:4′,1″-terphenyl]-3-carboxylic acid], the activity at 250 µM in test [1] was determined as 98.4%; in test [2], 56.6%; in test [3], 51.7%; in test [4] it was 66.2%. The activity at 500 µM in test [1] amounted to 28.7%; in test [2], 4.6%; in test [3], 17%; in test [4], 20.2%.

For the molecule `CC(=O)Nc1ccc(/C=C/c2ccccc2)cc1C(=O)O` [DC16, (E)-2-acetamido-5-styrylbenzoic acid], the activity at 250 µM is 67.3% in test [1], 34.5% in test [2], 92.4% in test [3] and 73.5% in test [4]. For the same molecule, the activity at 500 µM in test [1] came out at 51.7%; in test [2], 26.4%; in test [3] it was 83.7%; in test [4], 63.2%.

As to `COc1ccc(/C=C/c2ccccc2)cc1C(=O)O` [DC01, (E)-2-methoxy-5-styrylbenzoic acid], the activity at 250 µM in test [1] stood at 84.6%; in test [2] it was 60.5%; in test [3] it was 93.8%; in test [4] it was 76.6%. For the same molecule, the activity at 500 µM in test [1] came to 76.2%; in test [2] it was 43.1%; in test [3], 66.5%; in test [4], 79.6%.

With `CSc1ccc(/C=C/c2ccc(O)c(C(=O)O)c2)cc1` [DC08, (E)-2-hydroxy-5-(4-(methylthio)styryl)benzoic acid], the activity at 250 µM was found to be 28.8% in test [1], 25.9% in test [2], 21.1% in test [3] and 51.1% in test [4]. Further, the activity at 500 µM in test [1] is 9.3%; in test [2] it was 3.7%; in test [3], 6.6%; in test [4] it was 8.4%.

As for `O=C(O)c1cc(/C=C/c2ccccc2-c2ccccc2)ccc1O` [DC19, (E)-5-(2-([1,1′-biphenyl]-2-yl)vinyl)-2-hydroxybenzoic acid], the activity at 250 µM was 58.7% in test [1], 47.8% in test [2], 51% in test [3] and 64.6% in test [4]. Besides, the activity at 500 µM in test [1] is 3.3%; in test [2], 3.7%; in test [3], 4.3%; in test [4], 5%.

Consider `COc1ccc(/C=C\c2ccccc2)cc1C(=O)O` [DC03, (Z)-2-methoxy-5-styrylbenzoic acid], for which the activity at 250 µM in test [1] turned out to be 77.5%; in test [2], 68.6%; in test [3], 94.9%; in test [4], 87.9%. For the same molecule, the activity at 500 µM in test [1] turned out to be 68.2%; in test [2], 47.6%; in test [3], 49.4%; in test [4], 88.4%.

As for `CC1(C)c2ccccc2-c2ccc(/C=C/c3ccc(O)c(C(=O)O)c3)cc21` [DC21, (E)-5-(2-(9,9-dimethyl-9H-fluoren-2-yl)vinyl)-2-hydroxybenzoic acid], the activity at 250 µM is 4.9% in test [1], 4.2% in test [2], 5.7% in test [3] and 5% in test [4]. For the same molecule, the activity at 500 µM in test [1] was 2.8%; in test [2] it was 3.3%; in test [3], 4.2%; in test [4], 3.8%.

Consider `COc1ccc(C#Cc2ccccc2)cc1C(=O)O` [DC04, 2-methoxy-5-(phenylethynyl)benzoic acid], for which the activity at 250 µM came to 86.9% in test [1], 63.4% in test [2], 91.4% in test [3] and 80.6% in test [4]. The activity at 500 µM in test [1] turned out to be 77.6%; in test [2] it was 42.4%; in test [3] it was 68%; in test [4], 88.6%.
